Where two headings read alike, the source gives them in different places.

For series [1], the system named is tomato yellow leaf curl virus (TYLCV). In words: Test for symptom relief effects against tomato yellow leaf curl virus disease. The series is classed as in vivo. Conditions: 500 ppm alone. Here is the method: N,N-dimethylformamide based solutions were prepared according to the formulations shown in Table 18 to give chemical liquids for the tests.
Tomato nursery plants (breed: Momotaro) grown up to the 8 leaf stage in a greenhouse were prepared.
Tomato nursery plants suffering from tomato yellow leaf curl virus (TYLCV) were used as inoculation sources.
A diseased plant was obliquely cut in round slices at the stem, and graft-inoculated to a tomato nursery plant. In order to prevent dryness, parafilm was wrapped around the grafted portion for protection.
After the graft inoculation, the above chemical solution was sprayed on the stem and leaf part of the tomato nursery plant in a sufficient amount. Then, the above chemical solution was sprayed 3 times at intervals of about one week in a sufficient amount. Symptoms of tomato yellow leaf curl disease were investigated at an elapsed time of 25 days.
Symptoms were evaluated by 5 levels of onset indices of 0 (with no onset) to 4 (fulminant).
Onset inhibition percentages as compared with a region treated with solvent DMF only (Chemical solution 3) were computed by the following formula.
Onset inhibition percentage=(onset index of region treated with solvent only)−(onset index of each treatment region))/(onset index of region treated with solvent only)×100
Further, the expectation values of onset inhibition percentages were computed based on the Colby's equation.
The Colby's equation is E=M+N−MN/100. In the equation, E represents the expectation value of an onset inhibition percentage (%), and M represents an onset inhibition percentage (%) calculated from measurements when the substance (A1) is used alone, and N represent an onset inhibition percentage (%) calculated from measurements when the substance (A2) is used alone.

Series [2] concerns Tomato nursery plants (breed: Momotaro). The series is classed as in vivo. The note with it: spray, 7 days; for phytotoxicity index: index 0 to 10. Here is the method:
N,N-dimethylformamide based solutions were prepared according to the formulations shown in Table 10 to give chemical solutions for the tests.
Tomato nursery plants (breed: Momotaro) grown up to the 4 leaf stage in a greenhouse were prepared.
The above chemical solution was sprayed to the stem and leaf parts of the above tomato nursery plants in an amount of liquid dropping, and then air dried. They were allowed to grow for 7 days under the average temperature and humidity conditions on March in Japan.
Subsequently, phytotoxicity such as a degree of leaf browning and outgrowth inhibition was investigated.
Phytotoxicity was evaluated by 11 levels of phytotoxicity indices of 0 (with no disorder) to 10 (withering to death).
Chemical poisoning injury relief percentages as compared with a region treated with solvent DMF only were computed by the following formula.
Chemical poisoning injury relief percentage=(phytotoxicity index of region treated with solvent only)−(phytotoxicity index of each treated region))/(phytotoxicity index of region treated with solvent only)×100

Setting [3] is: agric. chemical 100 ppm alone (reference).
The mark [4] stands for this setting: agric. chemical 200 ppm alone (reference).

In the case of `O=C1O[C@H]([C@@H](O)CO)C(O)=C1O[C@H]1O[C@H](CO)[C@@H](O)[C@H](O)[C@H]1O` [Ascorbyl glucoside], the “Onset percentage(%)” value in series [1] (tomato graft-inoculated, sprayed 4 times, 25 days) turned out to be 40%. In addition, the “Onset inhibition percentage(%)” value in series [1] (vs solvent DMF only, 25 days) is 20%. Also, the “Expectation value(%)” value in series [1] (expectation value of onset inhibition percentage) is recorded as 20%.
With `O=[N+]([O-])c1cc(C(F)(F)F)c(Cl)c([N+](=O)[O-])c1Nc1ncc(C(F)(F)F)cc1Cl` [Fluazinam], the “relief percents of phytotoxicity (%)” value in series [2] (setting [3]) and in series [2] (setting [4]) was 0% throughout. The phytotoxicity index in series [2] (agric. chemical 100 ppm alone) and in series [2] (agric. chemical 200 ppm alone) was 6 in each case.
For `CO/C=C(/C(=O)OC)c1ccccc1Oc1cc(Oc2ccccc2C#N)ncn1` [Azoxystrobin], the “relief percents of phytotoxicity (%)” value in series [2] (setting [3]) and in series [2] (setting [4]) was 0% throughout. The results for the phytotoxicity index in series [2] (agric. chemical 100 ppm alone) and in series [2] (agric. chemical 200 ppm alone) were 5 and 6, respectively.

Values taken from patent US20150126368A1, “METHOD OF PROVIDING PLANT WITH STRESS RESISTANCE” (Nippon Soda Co., Ltd., priority 2012, published 2015).
